# Source: patent US12428408B2, “Fused heterocyclic mescaline derivatives” (Enveric Biosciences Canada Inc., priority 2022, dated 2025)
# Like-named read-outs stand apart in the source and are kept apart here.
# How the values were obtained:
# 5-HT2A receptor = 5-HT2A receptor (Homo sapiens, UniProt P28223); test: 5-HT2A receptor radioligand competition assay (SPA)
# 5-HT1B (h) = molecular target: T1, 5-HT1B (h) (Homo sapiens, UniProt P28222); test: Competition assay to measure binding affinity at 5-HT1B receptor; conditions: test ligand 10 μM; [3H]GR125743 1 nM
# T1 construct: host or cells: Chem-1 (RBL) cells
# 5-HT1D (r) = molecular target: T2, 5-HT1D (r) (Rattus norvegicus, UniProt P28565); test: Competition assay to measure binding affinity at 5-HT1D receptor; conditions: test ligand 10 μM; [3H]serotonin 1 nM
# T2 construct: host or cells: CHO cells
# D2 (h) = molecular target: T3, D2 (h) (Homo sapiens, UniProt P14416); test: Competition assay to measure binding affinity at D2L receptor; conditions: test ligand 10 μM; [3H]methylspiperone 0.3 nM
# T3 construct: host or cells: HEK-293 cells
# DAT (h) = molecular target: T4, DAT (h) (Homo sapiens, UniProt Q01959); test: Competition assay to measure binding affinity at dopamine transporter (DAT); conditions: test ligand 10 μM; [3H]BTCP 4 nM
# T4 construct: host or cells: CHO cells
# MT1 (ML1A) (h) = molecular target: T5, MT1 (ML1A) (h) (Homo sapiens, UniProt P48039); test: Competition assay to measure binding affinity at MT1 receptor; conditions: test ligand 10 μM; [125I]2-iodomelatonin 0.01 nM
# T5 construct: host or cells: CHO cells
# alpha2A (h) = molecular target: T6, alpha2A (h) (Homo sapiens, UniProt P08913); test: Competition assay to measure binding affinity at alpha2A receptor; conditions: test ligand 10 μM; [3H]RX 821002 1 nM; read-out: α-2A, percent of control-specific binding
# T6 construct: host or cells: CHO cells
# T6 sequence (P08913 1-465): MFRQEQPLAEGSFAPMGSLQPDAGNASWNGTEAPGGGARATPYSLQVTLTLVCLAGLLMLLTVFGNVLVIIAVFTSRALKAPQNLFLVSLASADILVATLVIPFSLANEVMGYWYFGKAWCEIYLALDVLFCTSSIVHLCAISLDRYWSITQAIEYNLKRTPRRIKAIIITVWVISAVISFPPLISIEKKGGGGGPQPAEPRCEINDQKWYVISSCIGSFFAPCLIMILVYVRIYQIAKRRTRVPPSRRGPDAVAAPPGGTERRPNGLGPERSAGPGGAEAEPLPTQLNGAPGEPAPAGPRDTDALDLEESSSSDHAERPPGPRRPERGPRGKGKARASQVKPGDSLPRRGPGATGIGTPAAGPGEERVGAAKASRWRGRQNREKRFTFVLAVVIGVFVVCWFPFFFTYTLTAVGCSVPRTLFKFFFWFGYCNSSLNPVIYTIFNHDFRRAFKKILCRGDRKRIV
# [1] = molecular target: T7, human serotonin transporter (SERT) (Homo sapiens, UniProt P31645); test: biochemical; type: binding
# T7 construct: purchased PerkinElmer RBHSTM400UA
# 5-HT7 (h) = molecular target: T8, 5-HT7 (h) (Homo sapiens, UniProt P34969); test: Competition assay to measure binding affinity at 5-HT7 receptor; conditions: test ligand 10 μM; [3H]LSD 4 nM
# T8 construct: host or cells: HEK-293 cells
# 5-HT1A receptor = molecular target: T9, 5-HT1A receptor (Homo sapiens, UniProt P08908); test: 5-HT1A receptor radioligand competition assay (SPA); type: binding
# T9 construct: purchased Perkin Elmer 6110501400UA
# T9 sequence (P08908 1-422): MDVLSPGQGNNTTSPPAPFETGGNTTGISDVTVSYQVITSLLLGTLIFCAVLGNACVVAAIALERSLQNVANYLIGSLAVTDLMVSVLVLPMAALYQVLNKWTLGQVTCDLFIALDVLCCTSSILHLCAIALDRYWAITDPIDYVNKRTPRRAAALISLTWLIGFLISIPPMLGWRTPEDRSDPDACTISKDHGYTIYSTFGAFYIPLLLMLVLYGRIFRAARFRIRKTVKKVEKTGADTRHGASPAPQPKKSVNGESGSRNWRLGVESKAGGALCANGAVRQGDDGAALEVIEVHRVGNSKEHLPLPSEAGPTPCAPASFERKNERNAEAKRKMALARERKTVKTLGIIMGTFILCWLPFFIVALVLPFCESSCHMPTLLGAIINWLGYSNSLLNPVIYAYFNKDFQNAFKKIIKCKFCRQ
# 5-HT2B (h) = molecular target: T10, 5-HT2B (h) (Homo sapiens, UniProt P41595); test: Competition assay to measure binding affinity at 5-HT2B receptor; conditions: test ligand 10 μM; [3H]mesulergine 2 nM
# T10 construct: host or cells: CHO cells
# D3 (h) = molecular target: T11, D3 (h) (Homo sapiens, UniProt P35462); test: Competition assay to measure binding affinity at D3 receptor; conditions: test ligand 10 μM; [3H]methylspiperone […]
# T11 construct: host or cells: CHO cells
# NET (h) = molecular target: T12, NET (h) (Homo sapiens, UniProt P23975); test: Competition assay to measure binding affinity at norepinephrine transporter (NET); conditions: test ligand 10 μM; [3H]nisoxetine 1 nM
# T12 construct: host or cells: CHO cells
# 5-HT2C (h) = molecular target: T13, 5-HT2C (h) (Homo sapiens, UniProt P28335); test: Competition assay to measure binding affinity at 5-HT2C receptor; conditions: test ligand 10 μM; [125I](±)DOI 0.1 nM
# T13 construct: host or cells: HEK-293 cells
# T13 sequence (P28335 33-458): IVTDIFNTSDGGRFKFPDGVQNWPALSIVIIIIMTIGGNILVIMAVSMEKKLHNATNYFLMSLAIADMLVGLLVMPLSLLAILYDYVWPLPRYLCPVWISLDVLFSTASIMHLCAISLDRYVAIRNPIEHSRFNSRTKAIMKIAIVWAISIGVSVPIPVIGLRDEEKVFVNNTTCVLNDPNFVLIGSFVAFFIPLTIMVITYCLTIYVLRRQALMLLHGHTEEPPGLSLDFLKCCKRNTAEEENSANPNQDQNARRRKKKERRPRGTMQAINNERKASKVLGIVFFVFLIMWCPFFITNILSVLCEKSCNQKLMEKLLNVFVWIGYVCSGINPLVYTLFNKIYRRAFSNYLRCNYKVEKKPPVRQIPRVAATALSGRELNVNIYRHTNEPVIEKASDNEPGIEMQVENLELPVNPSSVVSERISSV
# [2] = competition with 0.5 nM 8-hydroxy-DPAT [3H], test compound 3 nM to 1 mM, read-out: 5-HT1A, Ki
# T5 sequence (P48039 whole entry): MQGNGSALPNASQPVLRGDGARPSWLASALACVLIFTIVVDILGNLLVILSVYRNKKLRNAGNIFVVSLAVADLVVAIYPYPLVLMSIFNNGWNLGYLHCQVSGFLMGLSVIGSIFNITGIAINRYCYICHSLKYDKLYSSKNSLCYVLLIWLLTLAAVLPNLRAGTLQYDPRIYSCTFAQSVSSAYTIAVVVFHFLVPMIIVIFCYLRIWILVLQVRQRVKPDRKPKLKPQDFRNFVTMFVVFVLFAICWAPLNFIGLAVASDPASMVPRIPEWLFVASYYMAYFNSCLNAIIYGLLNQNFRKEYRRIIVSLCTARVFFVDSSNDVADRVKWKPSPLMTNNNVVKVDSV
# T7 sequence (P31645 whole entry): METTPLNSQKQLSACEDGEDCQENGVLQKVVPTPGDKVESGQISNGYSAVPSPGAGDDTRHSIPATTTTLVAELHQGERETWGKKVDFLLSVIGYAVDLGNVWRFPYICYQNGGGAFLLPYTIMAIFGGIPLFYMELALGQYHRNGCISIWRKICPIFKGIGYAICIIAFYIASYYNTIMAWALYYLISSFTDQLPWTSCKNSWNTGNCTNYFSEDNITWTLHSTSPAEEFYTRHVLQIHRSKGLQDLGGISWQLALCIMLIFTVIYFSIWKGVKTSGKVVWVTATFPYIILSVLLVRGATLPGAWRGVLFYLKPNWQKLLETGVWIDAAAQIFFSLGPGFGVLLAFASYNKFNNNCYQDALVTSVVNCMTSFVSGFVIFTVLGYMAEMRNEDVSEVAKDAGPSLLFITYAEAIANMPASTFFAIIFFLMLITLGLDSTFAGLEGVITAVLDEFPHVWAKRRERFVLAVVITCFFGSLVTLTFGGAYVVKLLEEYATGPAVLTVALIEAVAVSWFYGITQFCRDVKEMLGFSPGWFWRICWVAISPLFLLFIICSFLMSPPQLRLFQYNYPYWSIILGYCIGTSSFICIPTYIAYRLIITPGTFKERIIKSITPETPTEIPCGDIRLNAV
# T3 sequence (P14416 whole entry): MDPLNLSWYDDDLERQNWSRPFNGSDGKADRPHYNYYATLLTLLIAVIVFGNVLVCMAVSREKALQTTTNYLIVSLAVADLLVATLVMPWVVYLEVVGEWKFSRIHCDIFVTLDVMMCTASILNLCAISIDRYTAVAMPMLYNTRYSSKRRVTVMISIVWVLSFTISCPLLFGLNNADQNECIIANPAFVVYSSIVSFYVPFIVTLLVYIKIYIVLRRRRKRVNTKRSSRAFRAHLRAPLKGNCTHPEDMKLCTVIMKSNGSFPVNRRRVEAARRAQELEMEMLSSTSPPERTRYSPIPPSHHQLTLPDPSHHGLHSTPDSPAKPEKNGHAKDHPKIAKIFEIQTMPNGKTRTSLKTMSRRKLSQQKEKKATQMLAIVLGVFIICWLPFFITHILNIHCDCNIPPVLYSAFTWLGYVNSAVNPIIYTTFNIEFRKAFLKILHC
# T11 sequence (P35462 whole entry): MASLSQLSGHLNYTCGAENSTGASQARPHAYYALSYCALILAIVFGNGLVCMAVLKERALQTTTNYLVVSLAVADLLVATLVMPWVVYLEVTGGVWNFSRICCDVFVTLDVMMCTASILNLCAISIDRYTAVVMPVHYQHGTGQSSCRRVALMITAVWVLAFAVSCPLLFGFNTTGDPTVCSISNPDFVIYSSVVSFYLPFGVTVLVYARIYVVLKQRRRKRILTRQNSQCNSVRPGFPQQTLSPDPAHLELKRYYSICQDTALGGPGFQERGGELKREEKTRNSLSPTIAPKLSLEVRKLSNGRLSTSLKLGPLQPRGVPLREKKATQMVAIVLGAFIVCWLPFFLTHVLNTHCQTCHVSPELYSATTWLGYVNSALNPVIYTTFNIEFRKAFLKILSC
# T4 sequence (Q01959 whole entry): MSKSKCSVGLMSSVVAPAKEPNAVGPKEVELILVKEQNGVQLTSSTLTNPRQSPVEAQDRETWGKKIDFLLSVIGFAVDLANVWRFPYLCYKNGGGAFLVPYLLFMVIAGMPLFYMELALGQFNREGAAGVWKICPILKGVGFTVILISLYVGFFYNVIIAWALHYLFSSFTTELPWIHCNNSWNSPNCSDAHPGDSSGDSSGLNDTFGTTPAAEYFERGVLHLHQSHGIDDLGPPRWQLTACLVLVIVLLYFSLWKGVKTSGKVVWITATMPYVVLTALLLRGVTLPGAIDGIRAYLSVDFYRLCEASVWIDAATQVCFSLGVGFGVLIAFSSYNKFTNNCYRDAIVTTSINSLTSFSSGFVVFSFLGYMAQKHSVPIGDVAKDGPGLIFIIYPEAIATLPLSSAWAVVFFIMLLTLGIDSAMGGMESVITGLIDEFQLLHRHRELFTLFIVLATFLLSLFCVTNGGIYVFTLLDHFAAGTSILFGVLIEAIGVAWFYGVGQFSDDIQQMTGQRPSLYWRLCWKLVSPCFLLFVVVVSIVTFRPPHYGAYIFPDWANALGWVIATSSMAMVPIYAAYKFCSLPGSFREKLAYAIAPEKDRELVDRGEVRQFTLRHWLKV
# T2 sequence (P28565 whole entry): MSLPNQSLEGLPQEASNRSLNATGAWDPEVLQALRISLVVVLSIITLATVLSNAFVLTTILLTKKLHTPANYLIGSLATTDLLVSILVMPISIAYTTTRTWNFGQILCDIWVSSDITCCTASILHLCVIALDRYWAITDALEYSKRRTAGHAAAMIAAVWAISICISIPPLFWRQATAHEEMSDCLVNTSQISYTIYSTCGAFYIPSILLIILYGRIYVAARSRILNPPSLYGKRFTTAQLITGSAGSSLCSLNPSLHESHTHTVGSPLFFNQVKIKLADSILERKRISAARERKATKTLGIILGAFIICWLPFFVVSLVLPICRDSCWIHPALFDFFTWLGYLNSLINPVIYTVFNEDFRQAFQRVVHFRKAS
# 5-HT2A receptor, sequence (P28223 whole entry): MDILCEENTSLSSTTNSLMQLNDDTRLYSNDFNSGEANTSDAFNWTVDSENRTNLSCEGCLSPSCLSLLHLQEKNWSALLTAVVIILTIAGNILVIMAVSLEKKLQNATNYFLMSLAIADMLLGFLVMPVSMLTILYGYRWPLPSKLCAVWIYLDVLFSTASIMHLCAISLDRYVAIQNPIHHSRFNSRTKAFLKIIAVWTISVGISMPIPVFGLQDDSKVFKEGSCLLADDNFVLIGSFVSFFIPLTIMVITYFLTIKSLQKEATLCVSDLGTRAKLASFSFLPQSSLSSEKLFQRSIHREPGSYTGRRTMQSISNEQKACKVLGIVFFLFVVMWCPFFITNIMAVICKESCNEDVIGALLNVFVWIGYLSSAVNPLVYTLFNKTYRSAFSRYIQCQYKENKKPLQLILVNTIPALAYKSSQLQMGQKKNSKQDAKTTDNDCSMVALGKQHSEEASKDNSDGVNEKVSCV
# T10 sequence (P41595 whole entry): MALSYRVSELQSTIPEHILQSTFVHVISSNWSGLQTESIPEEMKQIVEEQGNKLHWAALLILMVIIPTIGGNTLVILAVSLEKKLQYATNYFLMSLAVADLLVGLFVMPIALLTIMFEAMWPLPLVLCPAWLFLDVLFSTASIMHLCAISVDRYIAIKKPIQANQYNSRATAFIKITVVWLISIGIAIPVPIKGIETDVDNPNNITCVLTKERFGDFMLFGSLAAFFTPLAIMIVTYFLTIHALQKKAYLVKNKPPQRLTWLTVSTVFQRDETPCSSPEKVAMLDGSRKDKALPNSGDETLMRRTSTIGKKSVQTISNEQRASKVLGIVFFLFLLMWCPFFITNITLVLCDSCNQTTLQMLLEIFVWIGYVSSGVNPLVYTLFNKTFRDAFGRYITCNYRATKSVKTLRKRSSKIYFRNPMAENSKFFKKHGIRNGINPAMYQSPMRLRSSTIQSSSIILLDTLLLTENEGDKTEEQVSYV
# T8 sequence (P34969 whole entry): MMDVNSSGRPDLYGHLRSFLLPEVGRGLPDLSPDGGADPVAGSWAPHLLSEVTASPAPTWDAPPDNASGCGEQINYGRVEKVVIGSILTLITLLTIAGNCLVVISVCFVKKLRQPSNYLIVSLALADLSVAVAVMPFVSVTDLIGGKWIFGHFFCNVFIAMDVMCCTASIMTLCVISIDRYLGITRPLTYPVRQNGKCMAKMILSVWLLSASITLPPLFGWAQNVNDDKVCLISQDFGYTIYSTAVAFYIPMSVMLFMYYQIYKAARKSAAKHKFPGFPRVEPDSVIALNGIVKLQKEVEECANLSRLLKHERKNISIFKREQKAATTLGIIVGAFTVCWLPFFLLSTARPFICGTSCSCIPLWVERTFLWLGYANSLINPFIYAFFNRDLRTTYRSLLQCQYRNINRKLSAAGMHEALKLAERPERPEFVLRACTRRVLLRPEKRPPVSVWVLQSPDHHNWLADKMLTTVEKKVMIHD
# T1 sequence (P28222 whole entry): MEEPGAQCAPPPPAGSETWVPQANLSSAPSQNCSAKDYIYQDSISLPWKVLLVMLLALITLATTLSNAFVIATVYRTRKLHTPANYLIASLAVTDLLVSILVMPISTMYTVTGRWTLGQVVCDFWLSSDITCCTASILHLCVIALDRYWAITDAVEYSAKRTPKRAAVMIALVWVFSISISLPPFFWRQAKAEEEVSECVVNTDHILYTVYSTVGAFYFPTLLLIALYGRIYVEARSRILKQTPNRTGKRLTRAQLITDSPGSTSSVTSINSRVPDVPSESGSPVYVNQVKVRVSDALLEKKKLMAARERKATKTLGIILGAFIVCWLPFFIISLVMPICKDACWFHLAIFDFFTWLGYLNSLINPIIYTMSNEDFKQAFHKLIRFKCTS
SMILES,Ki (5-HT2A receptor),"HT1B, percent of control-specific binding (5-HT1B (h))","HT1D, percent of control-specific binding (5-HT1D (r))","D2, percent of control-specific binding (D2 (h))","DAT, percent of control-specific binding (DAT (h))","MT1, percent of control-specific binding (MT1 (ML1A) (h))",inhibition at 10 µM (alpha2A (h)),Ki [1],"HT7, percent of control-specific binding (5-HT7 (h))",Ki (5-HT1A receptor),"HT2B, percent of control-specific binding (5-HT2B (h))","D3, percent of control-specific binding (D3 (h))","NET, percent of control-specific binding (NET (h))","HT2C, percent of control-specific binding (5-HT2C (h))",Ki (5-HT1A receptor; [2]),"SERT binding, binding curve in words [1]"
CC(Cc1ccc2c(c1)OCO2)N1CCC1 (stereo not drawn) [A(II)],13 µM,17%,43%,13%,86%,3%,60%,1.87 µM,59%,0.926 µM,84%,56%,77%,94%,,
CC(Cc1ccc2c(c1)OCO2)N1CCOCC1 (stereo not drawn) [A(III)],42 µM,0%,0%,12%,9%,0%,32%,26.3 µM,3%,38.6 µM,13%,9%,0%,3%,,
CC(Cc1ccc2c(c1)OCO2)N1CC(NC(=O)OC(C)(C)C)C1 (stereo not drawn) [A(IV)],15 µM,15%,13%,37%,20%,3%,75%,49.8 µM,79%,,94%,84%,15%,69%,1.6 µM,
CC(Cc1ccc2c(c1)OCCO2)NCc1cc2c(cc1Br)OCO2 (stereo not drawn) [A(IX)],19 µM,1%,83%,35%,75%,24%,82%,0.223 µM,72%,0.986 µM,97%,45%,47%,88%,,
COc1cc2c(cc1CNC(C)Cc1ccc3c(c1)OCO3)OCO2 (stereo not drawn) [A(V)],19 µM,0%,0%,19%,84%,23%,74%,1.28 µM,68%,1.88 µM,92%,23%,83%,90%,,
CC(Cc1ccc2c(c1)OCO2)NCc1cc2c(cc1Br)OCO2 (stereo not drawn) [A(VI)],5.3 µM,0%,47%,39%,79%,20%,74%,0.475 µM,67%,1.52 µM,99%,42%,55%,97%,,binds SERT
CC(Cc1ccc2c(c1)OCO2)NN(C)C (stereo not drawn) [A(VIII)],3.38 µM,0%,0%,12%,38%,33%,8%,22.6 µM,17%,,67%,18%,2%,79%,19.6 µM,
COc1cc2c(cc1CNC(C)Cc1ccc3c(c1)OCCO3)OCO2 (stereo not drawn) [A(X)],12 µM,0%,10%,13%,84%,15%,81%,2.36 µM,59%,1.1 µM,89%,25%,49%,63%,,
CC(Cc1ccc2c(c1)OCCO2)NCc1cc2c(cc1Br)OCCO2 (stereo not drawn) [A(XI)],7 µM,7%,31%,40%,47%,15%,92%,0.191 µM,62%,0.507 µM,94%,36%,64%,63%,,
O=C(Cc1c(Br)ccc2c1OCO2)N1CCCC1 [A(XXVI)],31 µM,0%,0%,0%,0%,30%,0%,,0%,,1%,0%,0%,1%,44.4 µM,
O=C(Cc1ccc2c(c1)OC(F)(F)O2)N1CCCC1 [A(XXVII)],,0%,2%,0%,5%,2%,0%,634 µM,0%,,5%,0%,15%,9%,> 1000 µM,
